Experimental data: patent publication US9113629B2, “4-amino-6-(4-substituted-phenyl)-picolinates and 6-amino-2-(4-substituted-phenyl)-pyrimidine-4-carboxylates and their use as herbicides” (DOW AGROSCIENCES LLC, priority 2013, dated 2015)
Like-named read-outs stand apart in the source and are kept apart here.

Key:
[1] = tested on: Key Grass and Sedge Weeds as well as Grass Crops; test: Post-emergent Test II herbicidal activity (Table 6); format: in vivo; details: post-emergence, 336 h; for pest or weed control at 70 g/ha: 70 g ai/ha; for pest or weed control at 140 g/ha: 140 g ai/ha
Summary of the method: (§1)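 Greenhouse-grown plants at first or second true leaf stage were sprayed post-emergence with compound in acetone/DMSO-based aqueous spray containing crop oil concentrate and surfactant, at 187 L/ha, highest rate plus ½× to 1/16× dilutions. After 14 d, injury was scored visually versus untreated plants, 0 (none) to 100% (complete kill).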

[2] = tested on: Key Broadleaf Weed and Crop Species; test: Post-emergent Test II herbicidal activity (Table 5); format: in vivo; details: post-emergence, 336 h, 14 days after application; for pest or weed control at 70 g/ha: application rate 70 g ai/ha; for pest or weed control at 140 g/ha: application rate 140 g ai/ha
Summary of the method: as §1

[3] = CYPES: yellow nutsedge (Cyperus esculentus), read-out: Visual Growth Reduction (%) 14 Days After Application, CYPES
[4] = DIGSA: crabgrass (Digitaria sanguinalis), read-out: Visual Growth Reduction (%) 14 Days After Application, DIGSA
[5] = ECHCG: barnyardgrass (Echinochloa crus-galli), read-out: Visual Growth Reduction (%) 14 Days After Application, ECHCG
[6] = ORYSA: rice (Oryza sativa), crop, read-out: Visual Growth Reduction (%) 14 Days After Application, ORYSA
[7] = SETFA: giant foxtail (Setaria faberi), read-out: Visual Growth Reduction (%) 14 Days After Application, SETFA
[8] = SORVU: grain sorghum (Sorghum vulgare), read-out: Visual Growth Reduction (%) 14 Days After Application, SORVU
[9] = TRZSS (wheat, Triticum aestivum), crop, read-out: Visual Growth Reduction (%) 14 Days After Application, TRZSS
[10] = ZEAMX: maize, corn (Zea mays), crop, read-out: Visual Growth Reduction (%) 14 Days After Application, ZEAMX
[11] = ABUTH: velvetleaf (Abutilon theophrasti), read-out: Visual Growth Reduction (%) 14 Days After Application, ABUTH
[12] = AMARE: redroot pigweed (Amaranthus retroflexus), read-out: Visual Growth Reduction (%) 14 Days After Application, AMARE
[13] = BRSNN: oilseed-rape, canola (Brassica napus), read-out: Visual Growth Reduction (%) 14 Days After Application, BRSNN
[14] = CHEAL: lambsquarters (Chenopodium album), read-out: Visual Growth Reduction (%) 14 Days After Application, CHEAL
[15] = EPHHL: wild poinsettia (Euphorbia heterophylla), read-out: Visual Growth Reduction (%) 14 Days After Application, EPHHL
[16] = HELAN: sunflower (Helianthus annuus), read-out: Visual Growth Reduction (%) 14 Days After Application, HELAN
[17] = VIOTR: wild pansy (Viola tricolor), read-out: Visual Growth Reduction (%) 14 Days After Application, VIOTR

SMILES: COC(=O)c1nc(-c2ccc(I)cc2)cc(N)c1Cl [Compound 158]
- pest or weed control at 70 g/ha [1, 3]: 45 to 59%
- pest or weed control at 140 g/ha [1, 3]: 45 to 59%
- pest or weed control at 70 g/ha [1, 4]: 60 to 74%
- pest or weed control at 140 g/ha [1, 4]: 60 to 74%
- pest or weed control at 70 g/ha [1, 5]: 60 to 74%
- pest or weed control at 140 g/ha [1, 5]: 75 to 84%
- pest or weed control at 70 g/ha [1, 6]: 0 to 29%
- pest or weed control at 140 g/ha [1, 6]: 0 to 29%
- pest or weed control at 70 g/ha [1, 7]: 0 to 29%
- pest or weed control at 140 g/ha [1, 7]: 0 to 29%
- pest or weed control at 70 g/ha [1, 8]: 85 to 94%
- pest or weed control at 140 g/ha [1, 8]: 85 to 94%
- pest or weed control at 70 g/ha [1, 9]: 0 to 29%
- pest or weed control at 140 g/ha [1, 9]: 45 to 59%
- pest or weed control at 70 g/ha [1, 10]: 0 to 29%
- pest or weed control at 140 g/ha [1, 10]: 0 to 29%
- pest or weed control at 70 g/ha [2, 11]: 95 to 100%
- pest or weed control at 140 g/ha [2, 11]: 95 to 100%
- pest or weed control at 70 g/ha [2, 12]: 95 to 100%
- pest or weed control at 140 g/ha [2, 12]: 95 to 100%
- pest or weed control at 70 g/ha [2, 13]: 60 to 74%
- pest or weed control at 140 g/ha [2, 13]: 75 to 84%
- pest or weed control at 70 g/ha [2, 14]: 95 to 100%
- pest or weed control at 140 g/ha [2, 14]: 95 to 100%
- pest or weed control at 70 g/ha [2, 15]: 95 to 100%
- pest or weed control at 140 g/ha [2, 15]: 95 to 100%
- pest or weed control at 70 g/ha [2, 16]: 75 to 84%
- pest or weed control at 140 g/ha [2, 16]: 75 to 84%
- pest or weed control at 70 g/ha [2, 17]: 0 to 29%
- pest or weed control at 140 g/ha [2, 17]: 0 to 29%
